Laboratory results taken from patent publication US7256201B2, “Selective estrogen receptor-β ligands” (AstraZeneca AB, priority 2000, dated 2007).

Columns and labels:
[1] = target: T1, human recombinant ERα (Homo sapiens, UniProt P03372); assay: Fluorescence polarization estrogen receptor (ERFP) binding assay, ERα; conditions: competition with Fluormone ES2; IC50 converted to Ki by Kenakin formula; read-out: FP α-ER Ki
T1 construct: purchased PanVera (Madison, Wis.)
T1 sequence (P03372 1-595): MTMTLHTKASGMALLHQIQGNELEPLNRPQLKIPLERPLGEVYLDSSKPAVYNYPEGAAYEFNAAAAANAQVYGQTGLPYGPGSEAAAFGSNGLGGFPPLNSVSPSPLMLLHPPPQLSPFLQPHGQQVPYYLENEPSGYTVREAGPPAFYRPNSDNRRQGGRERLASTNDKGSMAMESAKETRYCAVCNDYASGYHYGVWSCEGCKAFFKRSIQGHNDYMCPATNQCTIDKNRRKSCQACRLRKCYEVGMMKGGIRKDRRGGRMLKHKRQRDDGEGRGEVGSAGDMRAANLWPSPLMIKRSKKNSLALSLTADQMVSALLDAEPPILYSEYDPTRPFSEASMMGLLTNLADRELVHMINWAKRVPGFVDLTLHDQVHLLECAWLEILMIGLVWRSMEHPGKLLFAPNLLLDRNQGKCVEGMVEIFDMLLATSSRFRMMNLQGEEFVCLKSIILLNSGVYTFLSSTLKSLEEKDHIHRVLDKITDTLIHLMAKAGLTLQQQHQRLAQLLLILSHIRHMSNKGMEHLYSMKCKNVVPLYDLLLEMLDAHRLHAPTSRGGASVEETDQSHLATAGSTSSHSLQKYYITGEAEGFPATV
Method: (§1) A homogeneous mix-and-measure estrogen receptor (ER) binding assay which utilizes fluorescence polarization (FP) technology is used to identify compounds with affinity for the estrogen receptor. Purchased from PanVera (Madison, Wis.), assay reagents include purified human recombinant ERα, human recombinant ERβ, ES2 screening buffer (100 mM potassium phosphate, pH 7.4, 100 μg/mL bovine gamma globulin), and Fluormone™ ES2.
(§2) For competition binding experiments, dilutions of test compounds are prepared at 2× the final assay concentration in 0.2% DMSO in ES2 Screening buffer on TECAN Genosys, and 25 μL compound/well is dispensed into black Costar ½ volume 96-well plates. Dependent upon a lot specific Kd determination, 10-40 nM ERα or 10-40 nM ERβ and 1 nM Fluormone ES2 are then added to these plates in a final assay volume of 50 μL/well. Plates are gently shaken for at least 5 minutes to mix and incubated for at least 1 hr 45 minutes to achieve equilibrium. (Reaction mixtures are stable for up to 5 hours). After centrifugation to remove air bubbles, plates are read on an LJL Analyst or Acquest equipped with Criterion software at the following settings: Fluorescence Polarization Mode; Static Polarizer on Excitation Side; Dynamic Polarizer on Emission Side; Excitation λ=485×/−5 10 nm; Emission λ=520+/−12.5 nm.
(§3) Polarized fluorescence intensity values are collected and subsequently converted electronically to millipolarization (mp) values. Following data reduction and normalization with Excel and/or Prism software, % Ctrl values at the various test concentrations are used to obtain IC50 values via non-linear regression analysis of a four-parameter logistic equation.
(§4) Because ligand depletion is a consideration in this assay (˜40-60% input ES2 is bound in the assay), IC50 values are converted to Ki values through application of the Kenakin formula, as outlined in the reference below, rather than via the more routinely-used Cheng-Prusoff formula.

[2] = target: T2, βER (Homo sapiens, UniProt Q92731); assay: Cell-based assay for ER transcriptional activity (ERE β-gal reporter), βER-transfected 293 cells; conditions: for EC50 / ERE β-ER Max: 293 cells transfected with βER and ERE reporter; for ERE β-ER Max: maximal response, unit assumed; for ERE Selectivity: ratio α-ER EC50 / β-ER EC50
T2 construct: expressed in transfected cells; host or cells: 293 cells (Human Embryonic Kidney, ATCC CRL-1573)
T2 sequence (Q92731 54-530 limits assumed): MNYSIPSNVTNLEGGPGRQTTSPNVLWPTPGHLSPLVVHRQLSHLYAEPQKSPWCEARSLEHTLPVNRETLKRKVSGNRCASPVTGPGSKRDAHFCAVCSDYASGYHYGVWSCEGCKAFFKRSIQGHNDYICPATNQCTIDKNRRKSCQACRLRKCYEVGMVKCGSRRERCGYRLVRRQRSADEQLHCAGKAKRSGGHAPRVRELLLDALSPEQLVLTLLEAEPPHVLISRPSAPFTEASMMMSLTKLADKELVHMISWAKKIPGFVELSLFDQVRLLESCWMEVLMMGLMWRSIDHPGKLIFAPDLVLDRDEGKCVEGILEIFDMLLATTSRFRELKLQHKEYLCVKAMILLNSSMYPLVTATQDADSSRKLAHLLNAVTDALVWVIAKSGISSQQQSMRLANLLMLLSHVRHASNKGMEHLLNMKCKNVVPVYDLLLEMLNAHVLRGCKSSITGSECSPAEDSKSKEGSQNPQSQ
Method: (§5) ERs are ligand-dependent transcription factors that bind the promoter regions of genes at a consensus DNA sequence called the estrogen responsive element (ERE). The ER agonist or antagonist activity of a drug was determined by measuring the amount of reporter enzyme activity expressed from a plasmid under the control of an estrogen-responsive element when cells transiently transfected with ER and the reporter plasmid were exposed to drug. These experiments were conducted according to the following methods.
(§6) Estrogen Receptors alpha (αER, Gen Bank accession #M12674), and beta (βER, Gen Bank #X99101 were cloned into the expression vector pSG5 (Stratagene). A trimer of the vitellogenin-gene estrogen response element (vitERE) was synthesized as an oligonucleotide and attached to a beta-globin basal promoter in a construct named pERE3 gal. This response element and promoter were removed from pERE3 gal by digestion with the endonucleases SpeI (filled with Klenow fragment) and HindIII. This blunt/Hind III fragment was cloned into the β-galactosidase (β-gal) enhancer reporter plasmid (pBGALenh, Stratagene). αER and βER plasmids were purified using a the Endo Free Maxi Kit (Qiagen), and the DNA concentration and purity (A260/280 ratio) were determined spectrophotometrically (Pharmacia). Only DNA with A260/280 ratio of 1.8 and a concentration of >1 ug/uL was used for transfections.
(§7) All Transfections are performed in 293 cells (Human Embryonic Kidney cells ATCC #CRL-1573). Cells are grown in DMEM supplemented with 10% FBS, glutamine, sodium pyruvate and penicilin/streptomycin. Cells are grown to 70% confluency and split 1:4.
(§8) • 1. 293 cells are split the night before onto collagen I-coated 150 mm tissue-culture plates (Biocoat, Becton Dickinson #354551) at a density of 60-70% in DMEM Mediatech 17-205-CV) 10% charcoal-stripped FBS (biocell #6201-31). Approximately 1×10^7 cells/plate will yield 70% confluency. • 2. The next morning, 1 hour prior to transfection, the media is changed to fresh DMEM 10% FBS stripped and supplements. • 3. Transfections are performed using the Profection Kit (Promega #E1200). This kit is based on the calcium-phosphate-mediated transfection technique. Reagents are added in sterile polystyrene tubes in the following order:
(§9) Solution A • 15 μg αER or βER • 45 μg Reporter (pBGALenh or ERE3) • 1.5 mL Sterile Water • 186 μL CaCl2 • *Mix gently
(§10) Solution B • 1.5 mL 2× Hank's Buffered Salt Solution • 4. Using a vortex set on low, add solution A to solution B dropwise. The resulting solution should become milky in color. It is important to achieve thorough mixing. The solution is allowed to settle for 30 minutes, then vortexed before adding the solution to cells. • 5. Add the mixture to 150 mm plates dropwise. Mix well by rocking plates back and forth and side to side gently. After an hour, a very fine precipitate should be seen floating on and above cells under 20× magnification. If this precipitate is not observed, the transfection will not be effective. Incubate the cells for 12 hours. Receptor Stimulation: • 1. The day after transfection, cells are washed 2× with calcium- and magnesium-free Mg free PBS containing 1 mM EGTA (pH 7.6). Cells are trypsinized for 2 min with 3 mL of trypsin-EDTA. Trypsin is neutralized with DMEM 10% FCS. Cells are pelleted at 1000×g for 5 min. The cell pellet is then resuspended in 5 mL DMEM plus 2% phenol-red-free FCS supplemented with glutamine, pyruvate, and Penn/Strep. • 2. 50 μl of the resulting cell suspension is plated into each well of 96-well tissue culture dishes (Biocoat B&D #354407) using a multi-channel pipettor. The dishes have been previously loaded with 50 μL of DMSO-solubilized test compounds at twice the test concentration in DMEM. Data reported are either n=4 wells (single poke) and n=2 wells (9-point concentration-response curves). • 3. Cells are incubated overnight at 37° C. in the selected compounds. Reporter Assay: • 1. […]

[3] = target: T3, human recombinant ERβ (Homo sapiens, UniProt Q92731); assay: Fluorescence polarization estrogen receptor (ERFP) binding assay, ERβ; conditions: for Ki: competition with Fluormone ES2, IC50 converted to Ki by Kenakin formula, read-out: FP β-ER Ki; for FP Selectivity: ratio α-ER Ki / β-ER Ki
T3 construct: purchased PanVera (Madison, Wis.)
T3 sequence (Q92731 whole entry): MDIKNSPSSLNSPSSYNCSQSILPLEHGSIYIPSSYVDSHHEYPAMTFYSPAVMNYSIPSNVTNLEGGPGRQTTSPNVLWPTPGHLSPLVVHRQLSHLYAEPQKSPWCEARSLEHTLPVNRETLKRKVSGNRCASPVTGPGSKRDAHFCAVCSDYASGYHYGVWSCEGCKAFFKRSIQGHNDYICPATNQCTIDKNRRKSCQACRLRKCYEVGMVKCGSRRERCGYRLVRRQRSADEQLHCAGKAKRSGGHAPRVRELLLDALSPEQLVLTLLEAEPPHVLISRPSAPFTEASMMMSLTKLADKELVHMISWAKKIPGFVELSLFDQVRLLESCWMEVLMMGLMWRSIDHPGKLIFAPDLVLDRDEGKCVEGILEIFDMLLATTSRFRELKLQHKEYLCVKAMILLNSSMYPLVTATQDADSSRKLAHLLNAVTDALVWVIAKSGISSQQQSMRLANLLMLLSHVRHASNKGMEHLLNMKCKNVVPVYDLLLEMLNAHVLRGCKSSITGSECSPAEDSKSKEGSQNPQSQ
Method: as §1, §2, §3, §4

[4] = target: T4, αER (Homo sapiens, UniProt P03372); assay: Cell-based assay for ER transcriptional activity (ERE β-gal reporter), αER-transfected 293 cells; conditions: 293 cells transfected with αER and ERE reporter; for ERE α-ER Max: maximal response, unit assumed; for EC50: read-out: ERE α-ER EC50
T4 construct: expressed in transfected cells; host or cells: 293 cells (Human Embryonic Kidney, ATCC CRL-1573)
T4 sequence (P03372 1-595): T1 sequence (P03372 1-595)
Method: as §5, §6, §7, §8, §9, §10

In the case of “6-Hydroxy-2-(4-hydroxyphenyl)-1-phenylisoindoline and 5-hydroxy-2-(4-hydroxyphenyl)-1-phenylisoindoline [Example 27]”, the Ki [1] is reported as 170 nM, the EC50 [2] is reported as 34 nM and the ERE β-ER Max [2] is reported as 90%. For the same compound, the “ERE Selectivity” value [2] was 0.2, the Ki [3] was 190 nM and the “FP Selectivity” value [3] was 0.9. For the same compound, the ERE α-ER Max [4] was 54% and the EC50 [4] was 6.8 nM.
With `CCC1c2ccc(O)cc2CCN1c1ccc(O)c(Cl)c1` (stereo not shown) [Example 19, 2-(3-Chloro-4-hydroxy-phenyl)-1-ethyl-1,2,3,4-tetrahydro-isoquinolin-6-ol] the Ki [1] was 72 nM, the EC50 [2] was 209 nM and the ERE β-ER Max [2] was 41%. The “ERE Selectivity” value [2] was 0.1, the Ki [3] was 24.4 nM and the “FP Selectivity” value [3] was 3.0. The ERE α-ER Max [4] was 66% and the EC50 [4] was 16.8 nM.
Work on `CC1c2ccc(O)cc2CCN1c1cccc(O)c1` (stereo not shown) [Example 17, 2-(3-Hydroxy-phenyl)-1-methyl-1,2,3,4-tetrahydro-isoquinolin-6-ol] yielded a Ki [1] of 110 nM, an EC50 [2] of 49 nM and an ERE β-ER Max [2] of 72%. For the same compound, the “ERE Selectivity” value [2] was 0.1, the Ki [3] was 34 nM and the “FP Selectivity” value [3] was 3.3. It also gave an ERE α-ER Max [4] of 87% and an EC50 [4] of 2.5 nM.
`Cc1cc(O)ccc1N1CCc2cc(O)ccc2C1` [Example 3, 2-(4-Hydroxy-2-methylphenyl)-1,2,3,4-tetrahydroisoquinolin-6-ol] gave a Ki [1] of 60 nM, an EC50 [2] of 35.7 nM and an ERE β-ER Max [2] of 103%. For the same compound, the “ERE Selectivity” value [2] was 0.8, the Ki [3] was 8 nM and the “FP Selectivity” value [3] was 7.4. It also gave an ERE α-ER Max [4] of 93% and an EC50 [4] of 28.2 nM.
For `CC1c2ccc(O)cc2CCN1c1ccc(O)cc1` (stereo not shown) [Example 14, 2-(4-Hydroxy-phenyl)-1-methyl-1,2,3,4-tetrahydro-isoquinolin-6-ol], the Ki [1] was 307 nM, the EC50 [2] was 143 nM and the ERE β-ER Max [2] was 44%. The “ERE Selectivity” value [2] was 7.0, the Ki [3] was 45 nM and the “FP Selectivity” value [3] was 6.8. It also gave an ERE α-ER Max [4] of 42% and an EC50 [4] of 1000 nM.
In the case of `Cc1ccc(O)cc1N1CCc2cc(O)ccc2C1C` (stereo not shown) [Example 18, 2-(5-Hydroxy-2-methyl-phenyl)-1-methyl-1,2,3,4-tetrahydro-isoquinolin-6-ol], the Ki [1] is reported as 9 nM, the EC50 [2] is reported as 6.1 nM and the ERE β-ER Max [2] is reported as 117%. The “ERE Selectivity” value [2] was 4.0, the Ki [3] was 4.5 nM and the “FP Selectivity” value [3] was 2.1. For the same compound, the ERE α-ER Max [4] was 85% and the EC50 [4] was 24.6 nM.
Work on `Oc1ccc(N2Cc3ccc(O)cc3C2)cc1` [Example 25, 5-Hydroxy-2-(4-hydroxyphenyl)isoindoline] yielded a Ki [1] of 190 nM, an EC50 [2] of 161 nM and an ERE β-ER Max [2] of 77%. The “ERE Selectivity” value [2] was 1.2, the Ki [3] was 55 nM and the “FP Selectivity” value [3] was 3.5. For the same compound, the ERE α-ER Max [4] was 60% and the EC50 [4] was 192 nM.
`Cc1ccc(N2CCc3cc(O)ccc3C2c2ccoc2)cc1O` (stereo not shown) [Example 21, 1-Furan-3-yl-2-(3-hydroxy-4-methyl-phenyl)-1,2,3,4-tetrahydro-isoquinolin-6-ol] gave a Ki [1] of 22 nM, an EC50 [2] of 0.7 nM and an ERE β-ER Max [2] of 106%. The “ERE Selectivity” value [2] was 1.1, the Ki [3] was 3.8 nM and the “FP Selectivity” value [3] was 6.0. For the same compound, the ERE α-ER Max [4] was 77% and the EC50 [4] was 0.8 nM.
`CCC1c2cc(O)ccc2CN1c1ccc(O)cc1` (stereo not shown) [Example 26, 1-Ethyl-6-hydroxy-2-(4-hydroxyphenyl)isoindoline] was tested, and the Ki [1] was 200 nM, the EC50 [2] was 79 nM and the ERE β-ER Max [2] was 85%. The “ERE Selectivity” value [2] was 0.9, the Ki [3] was 160 nM and the “FP Selectivity” value [3] was 1.3. It also gave an ERE α-ER Max [4] of 102% and an EC50 [4] of 73 nM.
Compound `Oc1ccc(N2CCc3cc(O)ccc3C2c2ccc(Cl)cc2Cl)cc1` (stereo not shown) [Example 10, 1-(2,4-Dichlorophenyl)-2-(4-hydroxyphenyl)-1,2,3,4-tetrahydroisoquinolin-6-ol] has a Ki [1] of 11 nM, an ERE β-ER Max [2] of 44% and a Ki [3] of 7 nM. The “FP Selectivity” value [3] was 1.6 and the ERE α-ER Max [4] was 95%.
Compound `Oc1ccc(N2CCc3cc(O)ccc3C2c2ccccc2)cc1` (stereo not shown) [Example 6, 2-(4Hydroxyphenyl)-1-phenyl-1,2,3,4-tetrahydroisoquinolin-6-ol] has a Ki [1] of 10 nM, an EC50 [2] of 7.6 nM and an ERE β-ER Max [2] of 105%. For the same compound, the “ERE Selectivity” value [2] was 0.1, the Ki [3] was 10 nM and the “FP Selectivity” value [3] was 0.9. It also gave an ERE α-ER Max [4] of 100% and an EC50 [4] of 0.6 nM.
